Measurements from US20240118263A1, “TARGET FOR SCREENING ANTI-TUMOR DRUG, USE THEREOF AND SCREENING METHOD THEREFOR” (SHENYANG FUYANG PHARMACEUTICAL TECHNOLOGY CO., LTD., priority 2019, published 2024).

What was measured:
SelH = SelH (Homo sapiens, UniProt Q8IZQ5, U44C); assay: Surface plasmon resonance (SPR) detection of affinity between compounds and SelH; assay type: binding
From the text: A Cys-deficient Escherichia coli expression system was adopted, which is an effective method to prepare selenoprotein found in recent years. Itsbasic principle is as follows: the characteristic that Cys transfer RNA (tRNACys) can bind to Sec was utilized, and a culture medium which is lack of cysteine (Cys) and rich in Selenium cysteine (Sec) was used for culturing a strain, so that Sec was successfully incorporated into newly expressed protein. According to existing literature reports, a human SelH gene sequence was obtained. Selenocysteine of the SelH is in the middle of the sequence and was terminated here during prokaryotic expression, so that the selenocysteine was mutated from a triple codon TGA of the selenocysteine into TGC, which was synthesized by the Sangon Bioengineering (Shanghai) Co., Ltd. In addition, the adopted SPP system was a single protein production system, and a principle of the SPP system was to induce MazF enzyme (mRNA interfering enzyme for cutting RNA on an ACA nucleotide sequence) to cause growth arrest of thalli. The enzyme can specifically recognize and cut the ACA sequence and prevent synthesis of other background proteins in bacteria. Therefore, when mRNA of the desired target protein was encoded, if the mRNA can be designed into a form lacking an ACA base triplet according to an amino acid encoding rule and was induced at 15° C. by using a pCold vector in cells expressing MazF, the mRNA was not enzymatically hydrolyzed, only a protein derived from the mRNA was generated, and there was little synthesis of other cell proteins.
A pColdI-selH plasmid was transformed into BL21 (DE3) Cys-deficient Escherichia coli, so as to obtain a defective expression bacterium pColdI-selH. Sec was added during culture, making it become selenium-containing protein. The target protein was purified by using Ni^2+ column chelating chromatography, and impure protein was eluted by using an imidazole eluent of different concentrations to finally obtain the target protein. Soluble SelH protein was finally obtained, and SDS-PAGE (sodium dodecyl sulfate polyacrylamide gel electrophoresis) analysis was carried out.
A surface plasmon resonance (SPR) method was adopted to detect the interaction condition of a small molecule and a protein, so that the screening of drugs targeting SelH was carried out.
Purified SelH was diluted into a 50 μg/mL protein solution by using 10 mM sodium acetate with a pH value of 5.5, the purified SelH was fixed onto a CM5 chip by an amino coupling method by using Biacore 8K (GE Healthcard, Sweden), and an RU value was recorded.
An isopentenyl or isovaleryl substituted coumarin compound, or a triterpenoid compound with an isopentenyl-like structure (the compound specifically includes aurapten, protopanaxadiol, iso-imperatorin, decursin, osthol, notoginsenoside R1 and shionon) was dissolved in 100% DMSO to be prepared into solutions containing 5% DMSO of different concentrations (0, 31.25, 62.5, 125, 250 and 500 μM) by using a 1.05×PBS-P^+ buffer solution (GE Healthcare, obtained by diluting 10×PBS-P^+).
A single-cycle kinetics method was adopted, the 1.05×PBS-P^+ buffer solution containing 5% DMSO was used as a Running Buffer, different compounds of different concentrations flowed through the SelH fixed onto the chip, wherein the binding time was 120 s, and the change condition of the RU value was recorded. An equilibrium dissociation constant (KD) was calculated by using software in Biacore 8K so as to evaluate the binding affinity between the protein and the compounds. The SPR detection result of the affinity between compounds and SelH in Embodiment 2 of the present disclosure is as shown in FIG. 1A-G, and the result statistics is as shown in Table 1.
(1) Screening of small molecule drugs by taking SelH as a target A surface plasmon resonance (SPR) method was adopted to detect the interaction condition of a small molecule and a protein, so that the screening of drugs targeting SelH was carried out. […]

SELH protein expression = SELH protein expression (Homo sapiens (Human), UniProt Q8IZQ5); assay: Western blot of SELH protein in ISP I-treated cells; assay type: cell-based
Chain of SELH protein expression (Q8IZQ5 whole entry): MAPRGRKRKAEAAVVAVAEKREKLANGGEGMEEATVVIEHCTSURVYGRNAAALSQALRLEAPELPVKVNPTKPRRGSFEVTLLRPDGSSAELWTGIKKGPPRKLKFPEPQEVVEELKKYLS
From the text: A cycloheximide (CHX) chase assay was completed to assess ISP I's effect on SELH protein degradation.

786-O and RCC4 cells = assay: Cell cycle analysis by flow cytometry, RCC cells; assay type: cell-based
Protocol: Cell viability was assessed similarly via CKK8 analysis. […] (FIG. 10C, D).
For monitoring cell-cycle arrest of ISP I-treated cells, Click-iT EdU Flow Cytometry Assay Kits were used, a product of ThermoFisher Scientific. Cells were co-cultured with EdU at a concentration of 10 μM for 1 hour. After fixation and permeabilization, EdU-positive cells were labeled with Alexa Fluor 647 fluorescein. DAPI also was used for measuring total DNA content to identify differences in cell cycle phases. Data were collected by means of a BD LSRFortessa flow cytometer using FlowJo software. Cells that are positive with EdU and DAPI were in S-Phase of the cell cycle.

SELH (Sec44→Cys44) = SELH (Sec44→Cys44) (Homo sapiens, UniProt Q8IZQ5, U44C); assay: SPR assay of ISP I with SELH synthesized in bacteria; assay type: binding
Chain of SELH (Sec44→Cys44) (Q8IZQ5 with tags, fused parts or gaps U44C): as the sequence (Q8IZQ5 whole entry) above, with U44C counted along it
From the text: Next, the inventors used a thermo-stability assay to confirm SELH was targeted by ISP I in LN229 and 786-O cell lines. The principle of the assay is based on altered protein thermal stabilization/destabilization due to ligand binding in living cells. […] (FIG. 11B and FIG. 12A). To verify further the specificity of ISP I's targeting of SELH, the inventors designed a surface plasmon resonance assay to assess the interaction of ISP I with SELH synthesized in bacteria.
The affinities constant (KD) and kinetics (ka and kd) of ISP I binding to SELH (Sec44→Cys44) were assayed using Biacore 8K (GE Healthcare, Sweden), all at 25° C. […] Coupling conditions were determined by protein isoelectric points. […]
To determine the binding affinity between ISP I and SELH (Sec44→Cys44), a series of ISP I dilutions was analyzed by single-cycle kinetics. […] The ISP I at various gradient concentrations and one zero concentration (running buffer) flowed over the immobilized SELH, with 120 s for binding, followed by disassociation for 120 s, and the obtained response units (RUs) were recorded. The RU values were collected, and the binding affinity data were calculated by kinetic models (1:1 interaction) within Biacore 8K Evaluation Software. The equilibrium dissociation constant (KD) was calculated to evaluate the ability of ISP I to interact with SELH.

Chain of SelH (Q8IZQ5 with tags, fused parts or gaps U44C): as the sequence (Q8IZQ5 whole entry) above, with U44C counted along it

In the case of CO[C@@H]1[C@@H](O[C@@H]2O[C@H](C)[C@@H](O[C@H]3C[C@@](C)(O)[C@@H](OC(=O)CC(C)C)[C@H](C)O3)[C@H](N(C)C)[C@H]2O)[C@@H](CC=O)C[C@@H](C)[C@@H](O[C@H]2CC[C@H](N(C)C)[C@@H](C)O2)/C=C/C=C/C[C@@H](C)OC(=O)C[C@H]1O [Isovalerylspiramycin I, 4″-isovalerylspiramycin I], the Kd (SelH; SPR Biacore 8K, single-cycle kinetics, Table 3, read-out: KD binding of macrolides and cyclic peptides to SelH) is reported as 2480 nM, the “binding activity to the SelH (in words)” value (SelH; ranking within the table's compounds) is reported as “strongest” and the SELH protein expression (SELH protein expression; LN229 cells, different concentrations of ISP I) is reported as “reduced SELH protein expression in LN229 cells in a dose-dependent manner”. For the same molecule, the “SELH levels in glioblastoma cell lines” value (SELH protein expression; T98G, U118, LN229, U251, 10 μg/mL of ISP I for 24 hours) was “decreased SELH levels”, the cell-cycle arrest (786-O and RCC4 cells) was “induced cell-cycle arrest in the G0/G1 phase” and the “binding to SELH versus other proteins” value (SELH (Sec44→Cys44)) was “tightly binds to SELH but does not bind with the other proteins”.
